Measurements: patent publication EP4714953A1, “MELANOCORTIN 2-TYPE RECEPTOR ANTAGONIST” (Scohia Pharma, Inc., priority 2023, dated 2024)

Biological target: T1, human MC2R (Homo sapiens, UniProt Q01718)
T1 construct: host or cells: GeneBLAzer MC2R-CRE-bla CHO-K1 cells
Test: Measurement of human MC2R inhibitory activity using intracellular cAMP concentration as an indicator
Format: cell-based
Details: test compound at 1 µM; GeneBLAzer MC2R-CRE-bla CHO-K1 cells; ACTH (Human 1-24) final concentration 3 pM; intracellular cAMP by HTRF; read-out: MC2R inhibition rate (% of inhibition)
Experimental: Experimental Example 1: Measurement of human MC2R inhibitory activity using intracellular cAMP concentration as an indicator
GeneBLAzer MC2R-CRE-bla CHO-K1 cells (Thermo Fisher Scientific) that had been cryopreserved in advance were thawed and suspended in a medium [Dulbecco's Modified Eagle Medium (Thermo Fisher Scientific) containing fetal bovine serum (10% (v/v), HyClone Laboratories), Non-Essential Amino Acids Solution (1/100 (w/w), Thermo Fisher Scientific), HEPES (25 mM, Thermo Fisher Scientific), Penicillin/Streptomycin (1/100 (w/w), Fujifilm Wako)]. After centrifuging the cell suspension, the supernatant was removed, the cells were suspended in D-PBS(-) (Fujifilm Wako), and the supernatant was removed again after centrifugation. The cells were resuspended in an assay buffer [Hank's Balanced Salt Solution (Thermo Fisher Scientific) containing HEPES pH 7.5 (10 mM, Thermo Fisher Scientific), fatty acid-free bovine serum albumin (0.01% (w/v), Sigma), IBMX (500 µM, Fujifilm Wako)] and added to a 384-well white plate (Greiner) at 1,500 cells/well. Then, the test compound prepared using the assay buffer was added, and after standing for 20 min, an assay buffer containing ACTH (Human 1-24) (Peptide Institute) was added (ACTH final concentration, 3 pM). After standing at room temperature for 30 min, the intracellular cAMP level was measured using cAMP Gs HiRange kit HTRF (PerkinElmer). The inhibition rate (%) of the compound against MC2R was calculated using the following formula. Inhibition rate (%) = […] [formula] • A: cAMP concentration calculated from wells containing 3 pM ACTH (1-24) • B: cAMP concentration calculated from wells without addition of 3 pM ACTH (1-24) • C: cAMP concentration calculated from wells containing 3 pM ACTH (1-24) and test compound at concentration determined in advance

T1 sequence (Q01718 whole entry): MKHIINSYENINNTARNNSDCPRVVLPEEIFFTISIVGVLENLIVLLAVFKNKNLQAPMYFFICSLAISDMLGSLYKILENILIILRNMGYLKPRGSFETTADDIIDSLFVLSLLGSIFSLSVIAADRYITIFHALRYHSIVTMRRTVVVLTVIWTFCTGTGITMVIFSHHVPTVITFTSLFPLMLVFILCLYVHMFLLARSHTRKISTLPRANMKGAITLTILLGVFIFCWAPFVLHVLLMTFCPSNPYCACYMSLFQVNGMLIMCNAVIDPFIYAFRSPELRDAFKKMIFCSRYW
T1 sequence (Q8TCY5 whole entry partner): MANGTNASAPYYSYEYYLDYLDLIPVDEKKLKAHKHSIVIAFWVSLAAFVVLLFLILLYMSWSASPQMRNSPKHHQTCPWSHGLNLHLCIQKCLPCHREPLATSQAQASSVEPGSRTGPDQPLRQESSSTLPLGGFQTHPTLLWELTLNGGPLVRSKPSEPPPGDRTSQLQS

Row | Compound | inhibition at 1 µM [%]
1 | CCOc1ncccc1-c1ccc(N2C[C@H]3CN(c4ccc(Cl)cc4C(F)(F)F)C(=O)N3C[C@H]2CC)c(C(=O)NC[C@@H]2CCN2C(=O)OC(C)(C)C)n1 [Example 45, tert-butyl (2S)-2-[[[3-[(6R,8aS)-2-[4-chloro-2-(trifluoromethyl)phenyl]-6-ethyl-3-oxo-5,6,8,8a-tetrahydro-1H-imidazo[1,5-a]pyrazin-7-yl]-6-(2-ethoxypyridin-3-yl)pyridine-2-carbonyl]amino]methyl]azetidine-1-carboxylate] | 100
2 | CCOc1ncccc1-c1ccc(N2C[C@H]3CN(c4ccc(Cl)cc4C(F)(F)F)C(=O)N3C[C@H]2CC)c(C(=O)O)n1 [Example 38a, 3-[(6R,8aS)-2-[4-chloro-2-(trifluoromethyl)phenyl]-6-ethyl-3-oxo-5,6,8,8a-tetrahydro-1H-imidazo[1,5-a]pyrazin-7-yl]-6-(2-ethoxy-3-pyridyl)pyridine-2-carboxylic acid] | 91
3 | CCOc1ncccc1-c1ccc(N2CCN3C(=O)N(c4ccc(Cl)cc4C(F)(F)F)C[C@@H]3C2)c(C(=O)NC2CCOC2)n1 (stereo partly drawn) [Example 20, 3-[(8aS)-2-[4-chloro-2-(trifluoromethyl)phenyl]-3-oxo-5,6,8,8a-tetrahydro-1H-imidazo[1,5-a]pyrazin-7-yl]-6-(2-ethoxypyridin-3-yl)-N-(oxolan-3-yl)pyridine-2-carboxamide] | 99
4 | CCOc1ncccc1-c1ccc(N2CCN3C(=O)N(c4ccc(Cl)cc4C(F)(F)F)C[C@@H]3C2)c(C(=O)NCC2(O)CC2)n1 [Example 16, 3-[(8aS)-2-[4-chloro-2-(trifluoromethyl)phenyl]-3-oxo-5,6,8,8a-tetrahydro-1H-imidazo[1,5-a]pyrazin-7-yl]-6-(2-ethoxypyridin-3-yl)-N-[(1-hydroxycyclopropyl)methyl]pyridine-2-carboxamide] | 100
5 | CCOc1ncccc1-c1ccc(N2C[C@H]3CN(c4ccc(Cl)cc4C(F)(F)F)C(=O)N3C[C@H]2CC)c(C(=O)N[C@H](C)C(=O)NC)n1 [Example 40, 3-[(6R,8aS)-2-[4-chloro-2-(trifluoromethyl)phenyl]-6-ethyl-3-oxo-5,6,8,8a-tetrahydro-1H-imidazo[1,5-a]pyrazin-7-yl]-6-(2-ethoxypyridin-3-yl)-N-[(2R)-1-(methylamino)-1-oxopropan-2-yl]pyridine-2-carboxamide] | 100
6 | CCOc1ncccc1-c1ccc(N2C[C@H]3CN(c4ccc(Cl)cc4C(F)(F)F)C(=O)N3C[C@H]2CC)c(C(N)=O)n1 [Example 27, 3-[(6R,8aS)-2-[4-chloro-2-(trifluoromethyl)phenyl]-6-ethyl-3-oxo-5,6,8,8a-tetrahydro-1H-imidazo[1,5-a]pyrazin-7-yl]-6-(2-ethoxypyridin-3-yl)pyridine-2-carboxamide] | 100
7 | CCOc1ncccc1-c1ccc(N2CCN3C(=O)N(c4ccc(Cl)cc4C(F)(F)F)C[C@H]3C2)c(C(=O)NCCN(C)C)n1 [Example 8, 3-[(8aR)-2-[4-chloro-2-(trifluoromethyl)phenyl]-3-oxo-5,6,8,8a-tetrahydro-1H-imidazo[1,5-a]pyrazin-7-yl]-N-[2-(dimethylamino)ethyl]-6-(2-ethoxypyridin-3-yl)pyridine-2-carboxamide] | 90
8 | CCOc1ncccc1-c1ccc(N2C[C@H]3CN(c4ccc(Cl)cc4C(F)(F)F)C(=O)N3C[C@H]2CC)c(C=O)n1 [Example 10, 3-[(6R,8aS)-2-[4-chloro-2-(trifluoromethyl)phenyl]-6-ethyl-3-oxo-5,6,8,8a-tetrahydro-1H-imidazo[1,5-a]pyrazin-7-yl]-6-(2-ethoxypyridin-3-yl)pyridine-2-carbaldehyde] | 100
9 | CCOc1ncccc1-c1ccc(N2CCN3C(=O)N(c4ccc(Cl)cc4C(F)(F)F)C[C@@H]3C2)c(C(=O)NCC2CCOCC2)n1 [Example 11, 3-[(8aS)-2-[4-chloro-2-(trifluoromethyl)phenyl]-3-oxo-5,6,8,8a-tetrahydro-1H-imidazo[1,5-a]pyrazin-7-yl]-6-(2-ethoxypyridin-3-yl)-N-(oxan-4-ylmethyl)pyridine-2-carboxamide] | 97
10 | CC[C@@H]1CN2C(=O)N(c3ccc(Cl)cc3C(F)(F)F)C[C@@H]2CN1c1ccc(-c2cccnc2OC)nc1C(=O)N[C@@H]1CC(=O)N(C)C1 [Example 69, 3-[(6R,8aS)-2-[4-chloro-2-(trifluoromethyl)phenyl]-6-ethyl-3-oxo-5,6,8,8a-tetrahydro-1H-imidazo[1,5-a]pyrazin-7-yl]-6-(2-methoxy-3-pyridinyl)-N-[(3R)-1-methyl-5-oxopyrrolidin-3-yl]pyridine-2-carboxamide] | 92
11 | CCOc1ncccc1-c1ccc(N2C[C@H]3CN(C4(C(F)(F)F)CCC4)C(=O)N3C[C@H]2CC)c(C(=O)N[C@@H]2CC(=O)N(C)C2)n1 [Example 65, 3-[(6R,8aS)-6-ethyl-3-oxo-2-[1-(trifluoromethyl)cyclobutyl]-5,6,8,8a-tetrahydro-1H-imidazo[1,5-a]pyrazin-7-yl]-6-(2-ethoxy-3-pyridinyl)-N-[(3R)-1-methyl-5-oxopyrrolidin-3-yl]pyridine-2-carboxamide] | 89
12 | CCOc1ncccc1-c1ccc(N2C[C@H]3CN(c4ccc(Cl)cc4C(F)(F)F)C(=O)N3C[C@H]2CC)c(C(=O)NC[C@@H](C)O)n1 [Example 33, 3-[(6R,8aS)-2-[4-chloro-2-(trifluoromethyl)phenyl]-6-ethyl-3-oxo-5,6,8,8a-tetrahydro-1H-imidazo[1,5-a]pyrazin-7-yl]-6-(2-ethoxypyridin-3-yl)-N-[(2R)-2-hydroxypropyl]pyridine-2-carboxamide] | 100
13 | CCOc1ncccc1-c1ccc(N2CCN3C(=O)N(c4ccc(Cl)cc4C(F)(F)F)C[C@@H]3C2)c(C(=O)NCCc2ccccn2)n1 [Example 19, 3-[(8aS)-2-[4-chloro-2-(trifluoromethyl)phenyl]-3-oxo-5,6,8,8a-tetrahydro-1H-imidazo[1,5-a]pyrazin-7-yl]-6-(2-ethoxypyridin-3-yl)-N-(2-pyridin-2-ylethyl)pyridine-2-carboxamide] | 100
14 | CCOc1ncccc1-c1ccc(N2CCN3C(=O)N(c4ccc(Cl)cc4C(F)(F)F)C[C@@H]3C2)c(C(=O)NCCC2CCN(C(=O)OC(C)(C)C)CC2)n1 [Example 21, tert-butyl 4-[2-[[3-[(8aS)-2-[4-chloro-2-(trifluoromethyl)phenyl]-3-oxo-5,6,8,8a-tetrahydro-1H-imidazo[1,5-a]pyrazin-7-yl]-6-(2-ethoxypyridin-3-yl)pyridine-2-carbonyl]amino]ethyl]piperidine-1-carboxylate] | 82
15 | CCOc1ncccc1-c1ccc(N2CCN3C(=O)N(c4ccc(Cl)cc4C(F)(F)F)C[C@@H]3C2)c(C(=O)NCC2(O)COC2)n1 [Example 15, 3-[(8aS)-2-[4-chloro-2-(trifluoromethyl)phenyl]-3-oxo-5,6,8,8a-tetrahydro-1H-imidazo[1,5-a]pyrazin-7-yl]-6-(2-ethoxypyridin-3-yl)-N-[(3-hydroxyoxetan-3-yl)methyl]pyridine-2-carboxamide] | 100
16 | CCOc1ncccc1-c1ccc(N2C[C@H]3CN(c4ccc(Cl)cc4C(F)(F)F)C(=O)N3C[C@H]2CC)c(C(=O)N[C@H]2CCNC2=O)n1 [Example 48, 3-[(6R,8aS)-2-[4-chloro-2-(trifluoromethyl)phenyl]-6-ethyl-3-oxo-5,6,8,8a-tetrahydro-1H-imidazo[1,5-a]pyrazin-7-yl]-6-(2-ethoxypyridin-3-yl)-N-[(3S)-2-oxopyrrolidin-3-yl]pyridine-2-carboxamide] | 100
17 | CCOc1ncccc1-c1ccc(N2CCN3C(=O)N(c4ccc(Cl)cc4C(F)(F)F)C[C@@H]3C2)c(C(=O)NCCN(C)C)n1 [Example 6, 3-[(8aS)-2-[4-chloro-2-(trifluoromethyl)phenyl]-3-oxo-5,6,8,8a-tetrahydro-1H-imidazo[1,5-a]pyrazin-7-yl]-N-[2-(dimethylamino)ethyl]-6-(2-ethoxypyridin-3-yl)pyridine-2-carboxamide] | 100
18 | CCOc1ncccc1-c1ccc(N2CCN3C(=O)N(c4ccc(Cl)cc4C(F)(F)F)C[C@@H]3C2)c(C(=O)NCCS(C)(=O)=O)n1 [Example 18, 3-[(8aS)-2-[4-chloro-2-(trifluoromethyl)phenyl]-3-oxo-5,6,8,8a-tetrahydro-1H-imidazo[1,5-a]pyrazin-7-yl]-6-(2-ethoxypyridin-3-yl)-N-(2-methylsulfonylethyl)pyridine-2-carboxamide] | 100
19 | CCOc1ncccc1-c1ccc(N2C[C@H]3CN(c4ccc(F)cc4C(F)(F)F)C(=O)N3C[C@H]2CC)c(C(=O)N[C@H]2CNC(=O)C2)n1 [Example 51, 3-[(6R,8aS)-6-ethyl-2-[4-fluoro-2-(trifluoromethyl)phenyl]-3-oxo-5,6,8,8a-tetrahydro-1H-imidazo[1,5-a]pyrazin-7-yl]-6-(2-ethoxypyridin-3-yl)-N-[(3R)-5-oxopyrrolidin-3-yl]pyridine-2-carboxamide] | 100
